What is called IC50 is the concentration that gives 50% inhibition.

Molecules are shown by their SMILES. Like-named read-outs stand apart in the source and are kept apart here.

The values that follow come from PMC6471197, “Biological Activity and In Silico Study of 3-Modified Derivatives of Betulin and Betulinic Aldehyde” (International Journal of Molecular Sciences, 2019).

The test system of experiment [1] is MV-4-11 (biphenotypic B myelomonocytic leukaemia) cell line. The experiment in a line: MTT antiproliferative assay on MV-4-11 cells. Conditions: MTT assay, Neg = negative in the concentration used; for IC50: Homo sapiens, MV4-11. In kind it is cell-based, human. Here is the method:
(§1) The applied human cell lines such as MV-4-11 (biphenotypic B myelomonocytic leukaemia), A549 (lung adenocarcinoma), Du-145 (prostate), Hs294T (melanoma), MCF-7 (breast adenocarcinoma) and MCF-10A (normal mammary gland) were obtained from the American Type Culture Collection (ATCC, Rockville, MD, USA). The all cell lines are maintained at the Cell Culture Collection of the Institute of Immunology and Experimental Therapy (Wrocław, Poland). The cells were plated in 96-well plates (Sarstedt, Newton, MA, USA) at a density of 1 × 10^4 cells per well in 100 µL of appropriate culture medium overnight. Biphenotypic B myelomonocytic leukaemia (MV-4-11) cells were cultured in RPMI 1640 medium (Gibco, Scotland, UK) with GlutaMAX (Thermo-Fisher Scientific, Warsaw, Poland) adjusted to contain 1.0 mM sodium pyruvate (Sigma-Aldrich, Chemie GmbH, Steinheim, Germany). Human lung adenocarcinoma (A549) cells were cultured in mixture RPMI 1640 and Opti-MEM medium (Gibco, Scotland, UK) supplemented with GlutaMAX (ThermoFisher Scientific, Warsaw, Poland) and 2mM L-glutamine adjusted to contain 1.0 mM sodium pyruvate. Human prostate (Du-145) and human breast adenocarcinoma (MCF-7) cells were cultured in Eagle medium (IIET, Wrocław, Poland), supplemented with 2 mM L-glutamine adjusted to contain 1.0 mM sodium pyruvate. Human melanoma (Hs294T) cells were cultured in Dulbecco medium (Gibco, Scotland, UK) supplemented with 2 mM L-glutamine. The normal human mammary gland cells (MCF-10A) were cultured in Ham’s F-12 medium containing 2 mM L-glutamine, 5% horse serum, epidermal growth factor EGF (100 μL/100 mL of medium), hydrocortisone (1 mL/ 100 mL of medium), insulin (100 μL/100 mL of medium) and cholera toxin (0.1 mL/100 mL of medium). All applied culture media except MCF-10A were supplemented with 10% of FBS (MV-4-11 cultured with FBS derived from Sigma-Aldrich, Chemie GmbH, Steinheim, Germany, the other cell lines FBS HyClone Thermo-Fisher Scientific, Warsaw, Poland) and streptomycin (100 µg/mL), penicillin (100 U/mL) (both from Polfa, Tarchomin, Poland). The tested cell lines were grown at 37 °C in humid atmosphere saturated with 5% CO2. In our studies were used two assays for determination the cytotoxic activity in vitro of triterpene derivatives. By dissolving 1 mg of each tested compound in 100 µL of DMSO, stock solutions at a 10 mg/mL were obtained. Next, the stock solutions were diluted in appropriate culture medium to reach the required concentrations of compounds ranging from 0.1 to 100 µg/mL. The MTT assay was used for the cytotoxicity screening against biphenotypic B myelomonocytic leukaemia (MV-4-11). The SRB assay was performed for adherent cells such as A549, Du-145, Hs294T, MCF-7 and MCF-10A. Both assays were carried as described by Wietrzyk et al.. The triterpenes in given concentration were examined in triplicates in each experiment, which was repeated 3 times. The results of anticancer activity in vitro were presented as an IC50 in µM. Cisplatin and betulin 1 were used as reference substances.

Experiment [2] deals with A549 (lung adenocarcinoma). The experiment in a line: SRB antiproliferative assay on A549 cells. Type of experiment: cell-based, human. Particulars: Homo sapiens, A549. Here is the method: as §1
Background: In SRB staining, fixed cells bind dye roughly in proportion to their protein.

The test system of experiment [3] is Du-145 (prostate). The experiment in a line: SRB antiproliferative assay on Du-145 cells. Type of experiment: cell-based, human. Particulars: for IC50: Homo sapiens, DU-145, SRB assay. The procedure: as §1
Experiment [4] relates to Hs294T (melanoma). The experiment can be described thus: SRB antiproliferative assay on Hs294T cells. Type of experiment: cell-based, human. Particulars: for IC50: Homo sapiens, Hs 294T, SRB assay. Here is the method:
as §1

Experiment [5] relates to MCF-7 (breast adenocarcinoma). The experiment can be described thus: SRB antiproliferative assay on MCF-7 cells. In kind it is cell-based, human. Conditions: for IC50: Homo sapiens, MCF7, SRB assay. Here is the method: as §1
Experiment [6] concerns MCF-10A (normal mammary gland). The experiment can be described thus: SRB antiproliferative assay on MCF-10A cells. Type of experiment: cell-based, human. Particulars: Neg = negative in the concentration used; for IC50: Homo sapiens, MCF-10A. The procedure: as §1
Experiment [7] deals with A549, Du-145, Hs294T, MCF-7 and MCF-10A. The experiment can be described thus: SRB antiproliferative assay, ranges over the cell line panel. In kind it is cell-based. Conditions: Homo sapiens. The procedure: The applied human cell lines such as MV-4-11 (biphenotypic B myelomonocytic leukaemia), A549 (lung adenocarcinoma), Du-145 (prostate), Hs294T (melanoma), MCF-7 (breast adenocarcinoma) and MCF-10A (normal mammary gland) were obtained from the American Type Culture Collection (ATCC, Rockville, MD, USA). The all cell lines are maintained at the Cell Culture Collection of the Institute of Immunology and Experimental Therapy (Wrocław, Poland). The cells were plated in 96-well plates (Sarstedt, Newton, MA, USA) at a density of 1 × 10^4 cells per well in 100 µL of appropriate culture medium overnight. Biphenotypic B myelomonocytic leukaemia (MV-4-11) cells were cultured in RPMI 1640 medium (Gibco, Scotland, UK) with GlutaMAX (Thermo-Fisher Scientific, Warsaw, Poland) adjusted to contain 1.0 mM sodium pyruvate (Sigma-Aldrich, Chemie GmbH, Steinheim, Germany). Human lung adenocarcinoma (A549) cells were cultured in mixture RPMI 1640 and Opti-MEM medium (Gibco, Scotland, UK) supplemented with GlutaMAX (ThermoFisher Scientific, Warsaw, Poland) and 2mM L-glutamine adjusted to contain 1.0 mM sodium pyruvate. Human prostate (Du-145) and human breast adenocarcinoma (MCF-7) cells were cultured in Eagle medium (IIET, Wrocław, Poland), supplemented with 2 mM L-glutamine adjusted to contain 1.0 mM sodium pyruvate. […]

[8] abbreviates: SI = IC50 for normal mammary gland (MCF-10A)/IC50 on tumour cell line.

Compound `C#CCOC(=O)O[C@H]1CC[C@@]2(C)C(CC[C@]3(C)C2CCC2C4C(C(=C)C)CC[C@]4(C=O)CC[C@]23C)C1(C)C` (stereo partly drawn) [Compound 23, 3-Propargyloxycarbonylbetulinic aldehyde] displayed a half-maximal inhibitory concentration (IC50) in experiment [1] of 30 ± 6.1 µM.
With `C=C(C)C1CC[C@]2(CO)CC[C@]3(C)C(CCC4[C@@]5(C)CC[C@H](OC(=O)C#CC)C(C)(C)C5CC[C@]43C)C12` (stereo partly drawn) [Compound 9, 3-(2-Butynoyl)betulin], the concentration for half-maximal inhibition (IC50) in experiment [1] is 4.5 ± 1.7 µM; in experiment [2], 83.5 ± 25.3 µM; in experiment [3], 7.3 ± 0.8 µM; in experiment [4] it was 10.6 ± 4.3 µM; in experiment [5], 10.4 ± 5.7 µM; in experiment [6], 71.7 ± 8.6 µM. For the same compound, the half-maximal inhibitory concentration (IC50) in experiment [7] (range over A549, Du-145, Hs294T, MCF-7, MCF-10A, read-out: IC50 against the tested cell lines) is 7.3 to 83.5 µM; in experiment [7] (range over the three cell lines, read-out: IC50 towards Du-145, MCF-7 and Hs294T cells), 7.3 to 10.6 µM. Also, in experiment [3] (setting [8]), the “Selectivity Index (SI) towards Du-145” value stood at 9.82. Further, in experiment [4] (setting [8]), the “Selectivity Index (SI) towards Hs294T” value was 6.76. The “Selectivity Index (SI) towards MCF-7” value in experiment [5] (setting [8]) was 6.89.
Take `C=C(C)C1CC[C@]2(C=O)CC[C@]3(C)C(CCC4[C@@]5(C)CC[C@H](OC(=O)OCCC)C(C)(C)C5CC[C@]43C)C12` (stereo partly drawn) [Compound 21, 3-Propoxycarbonylbetulinic aldehyde]: the IC50 in experiment [1] came to 80.2 ± 14.4 µM.
Regarding `C=C(C)C1CC[C@]2(CO)CC[C@]3(C)C(CCC4[C@@]5(C)CC[C@H](OC(C)=O)C(C)(C)C5CC[C@]43C)C12` (stereo partly drawn) [Compound 2, 3-acetylbetulin, reference compound], the concentration for half-maximal inhibition (IC50) in experiment [1] amounted to 27.2 ± 5.9 µM.
Turning to `C#CCOC(=O)O[C@H]1CC[C@@]2(C)C(CC[C@]3(C)C2CCC2C4C(C(=C)C)CC[C@]4(CO)CC[C@]23C)C1(C)C` (stereo partly drawn) [Compound 13, 3-Propargyloxycarbonylbetulin], the IC50 came to 7.4 ± 1.7 µM in experiment [1]; 14.9 ± 2.5 µM in experiment [2]; 95.1 ± 16.8 µM in experiment [3]; 82.7 ± 8.4 µM in experiment [4]; 28.9 ± 4.6 µM in experiment [5]. For the same compound, the “Antiproliferative Activity IC50 MCF-10A” value in experiment [6] is “Neg”.
Take `C=C(C)C1CC[C@]2(CO)CC[C@]3(C)C(CCC4[C@@]5(C)CC[C@H](OC(=O)OCC)C(C)(C)C5CC[C@]43C)C12` (stereo partly drawn) [Compound 10, 3-Ethoxycarbonylbetulin]: the midpoint of inhibition in experiment [1], the IC50, lay at 20 ± 1.5 µM.
As for `C#CCCOC(=O)O[C@H]1CC[C@@]2(C)C(CC[C@]3(C)C2CCC2C4C(C(=C)C)CC[C@]4(CO)CC[C@]23C)C1(C)C` (stereo partly drawn) [Compound 14, 3-(3-Butynyloxycarbonyl)betulin], the concentration for half-maximal inhibition (IC50) in experiment [1] turned out to be 8.9 ± 0.9 µM; in experiment [2] it was 33.8 ± 2.8 µM; in experiment [3] it was 126 ± 13.2 µM; in experiment [4] it was 164 ± 15.8 µM; in experiment [5], 39.2 ± 6.9 µM. The “Antiproliferative Activity IC50 MCF-10A” value in experiment [6] was “Neg”.
`C=C(C)C1CC[C@]2(CO)CC[C@]3(C)C(CCC4[C@@]5(C)CC[C@H](OC(=O)OCCC)C(C)(C)C5CC[C@]43C)C12` (stereo partly drawn) [Compound 11, 3-Propoxycarbonylbetulin] gave a half-inhibitory concentration (IC50) in experiment [1] of 30.8 ± 1.5 µM.
Same read-out and setting: then `C=C(C)C1CC[C@]2(C=O)CC[C@]3(C)C(CCC4[C@@]5(C)CC[C@H](OC(=O)C#CC)C(C)(C)C5CC[C@]43C)C12` (stereo partly drawn) [Compound 19, 3-(2-Butynoyl)betulinic aldehyde], with 35.9 ± 4.9 µM.
Still for that read-out and setting: then `C=C(C)C1CC[C@]2(C=O)CC[C@]3(C)C(CCC4[C@@]5(C)CC[C@H](OC(C)=O)C(C)(C)C5CC[C@]43C)C12` (stereo partly drawn) [Compound 3, 3-acetylbetulinic aldehyde, reference compound], with 35 ± 12.8 µM.
For the compound `C=C(C)C1CC[C@]2(C=O)CC[C@]3(C)C(CCC4[C@@]5(C)CC[C@H](OC(=O)C#Cc6ccccc6)C(C)(C)C5CC[C@]43C)C12` (stereo partly drawn) [Compound 18, 3-Phenylpropynoylbetulinic aldehyde], the “MV-4-11 IC50” value in experiment [1] was “Neg”.
In the case of `C=CC(=O)O[C@H]1CC[C@@]2(C)C(CC[C@]3(C)C2CCC2C4C(C(=C)C)CC[C@]4(CO)CC[C@]23C)C1(C)C` (stereo partly drawn) [Compound 6, 3-(2-Propenoyl)betulin], the IC50 came to 4.2 ± 1.2 µM in experiment [1]; 23.3 ± 1.8 µM in experiment [2]; 84.5 ± 39.4 µM in experiment [3]; 45.9 ± 3.8 µM in experiment [5]; 120 ± 15.3 µM in experiment [6].
